From patent EP4603105A1, “PHARMACEUTICAL COMPOSITION CONTAINING CYCLIC COMPOUND HAVING SELECTIVE KRAS INHIBITORY EFFECT AGAINST HRAS AND NRAS” (CHUGAI SEIYAKU KABUSHIKI KAISHA, priority 2022, dated 2024)

Experiments:
[1] = target: GDP-bound NRAS wild-type protein (Homo sapiens, UniProt P01111); assay: Binding to NRAS by surface plasmon resonance (SPR), KD and KD ratio to KRAS
How it was run: (§1)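 Captured GDP-RAS (~100–300 RU) was exposed to increasing compound concentrations, 75 s per step, in running buffer with 10 µM GDP, 10 mM MgCl2 and 4% DMSO at pH 7.4.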

[2] = tested on: human lung cancer strain NCI-H441; type: cell-based
How it was run: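 Step one: dispense the test compound in serial DMSO dilutions. Step three: add the reagent and measure […].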

[3] = target: HRAS wild-type protein (Homo sapiens, UniProt P01112); assay: Binding to HRAS by surface plasmon resonance (SPR), KD and KD ratio to KRAS
Chain of HRAS wild-type protein (P01112 whole entry): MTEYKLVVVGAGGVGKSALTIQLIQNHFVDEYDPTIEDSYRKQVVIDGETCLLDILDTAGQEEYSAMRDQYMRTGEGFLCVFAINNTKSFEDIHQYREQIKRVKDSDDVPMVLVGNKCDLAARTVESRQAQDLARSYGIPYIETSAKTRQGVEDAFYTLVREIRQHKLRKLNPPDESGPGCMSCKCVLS
How it was run: as §1

[4] = ratio of the KD value with respect to GDP-bound NRAS wild-type protein to the KD value with respect to KRAS
[5] = ratio of the KD value with respect to HRAS wild-type protein to the KD value with respect to KRAS
[6] = ratio of KD for GDP-bound NRAS wild-type protein to KD for KRAS
[7] = ratio of KD for HRAS wild-type protein to KD for KRAS
[8] = ratio of KD with respect to GDP-bound NRAS wild-type protein to KD with respect to KRAS
[9] = ratio of KD with respect to HRAS wild-type protein to KD with respect to KRAS

Chain of GDP-bound NRAS wild-type protein (P01111 whole entry): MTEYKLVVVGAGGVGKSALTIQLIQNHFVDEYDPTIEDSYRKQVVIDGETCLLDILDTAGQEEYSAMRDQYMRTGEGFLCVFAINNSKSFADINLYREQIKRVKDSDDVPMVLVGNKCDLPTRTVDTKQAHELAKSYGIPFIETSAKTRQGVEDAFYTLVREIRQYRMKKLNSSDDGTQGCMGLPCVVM

CCCC[C@H]1C(=O)N[C@@H]([C@@H](C)CC)C(=O)N(C)CC(=O)N(C)[C@H]2C/C=C\CCN(C2=O)[C@@H](Cc2ccc(C(F)(F)F)cc2)C(=O)N(C)CC(=O)N[C@@H](CCc2ccc(C(F)(F)F)c(Cl)c2)C(=O)N2C[C@H](OCC)C[C@H]2C(=O)NC2(CC(C)(C)C2)C(=O)N(C)[C@@H](C2CCCC2)C(=O)N(C)[C@H](C(=O)N(C)C)CC(=O)N1C [PP1750]
NRAS /KRAS ([1]; ratio of KD value for GDP-bound NRAS wild-type protein to KD value for KRAS (SPR)): A (a compound having 10 or more and less than 20 is denoted as A)
IC50 [2]: 3.4 nM
HRAS /KRAS ([3]; ratio of KD value for HRAS wild-type protein to KD value for KRAS (SPR)): B (a compound having 3 or more and less than 10 is denoted as B)

CC[C@H](C)[C@@H]1NC(=O)[C@H](CC(C)C)N(C)C(=O)C[C@@H](C(=O)N2CCOCC2)N(C)C(=O)[C@H](C2CCCCC2)N(C)C(=O)C2(CCCC2)NC(=O)[C@@H]2CCCN2C(=O)[C@H](CCc2cc(F)c(C(F)(F)F)c(F)c2)NC(=O)CN(C)C(=O)[C@H](Cc2ccc(C(F)(F)F)cc2)N2CCCC[C@@H](C2=O)N(C)C(=O)CN(C)C1=O [PP0567]
NRAS /KRAS [1, 4]: B (a compound having 3 or more and less than 10 is denoted as B)
IC50 [2]: 8.3 nM
HRAS /KRAS [3, 5]: B (a compound having 3 or more and less than 10 is denoted as B)

CCO[C@@H]1C[C@H]2C(=O)NC3(CCC3)C(=O)N(C)[C@@H](C3CCCC3)C(=O)N(C)[C@H](C(=O)N(C)CC)CC(=O)N(C)[C@@H](CC3CCC3)C(=O)N[C@@H]([C@@H](C)CC)C(=O)N(C)CC(=O)N(C)[C@H]3C/C=C\CCN(C3=O)[C@@H](Cc3ccc(C(F)(F)F)cc3)C(=O)N(C)CC(=O)N[C@@H](CCc3ccc(C(F)(F)F)c(OC)c3)C(=O)N2C1 [PP2825]
NRAS /KRAS [1, 6]: A (a compound having 10 or more and less than 20 is denoted as A)
IC50 [2]: 7.6 nM
HRAS /KRAS [3, 7]: B (a compound having 3 or more and less than 10 is denoted as B)

CCO[C@@H]1C[C@H]2C(=O)NC3(CCC3)C(=O)N(C)[C@@H](C3CCCC3)C(=O)N(C)[C@H](C(=O)N(CC)CC)CC(=O)N(C)[C@@H](CC(C)C)C(=O)N[C@@H]([C@@H](C)CC)C(=O)N(C)CC(=O)N(C)[C@H]3C/C=C\CCN(C3=O)[C@@H](Cc3ccc(C(F)(F)F)cc3)C(=O)N(C)CC(=O)N[C@@H](CCc3cc(F)c(C(F)(F)F)c(F)c3)C(=O)N2C1 [PP1306]
NRAS /KRAS [1, 8]: AA (a compound having 20 or more is denoted as AA)
IC50 [2]: 14.7 nM
HRAS /KRAS [3, 9]: A (a compound having 10 or more and less than 20 is denoted as A)

CC[C@H](C)[C@@H]1NC(=O)[C@H](CC(C)C)N(C)C(=O)C[C@@H](C(=O)N2CCOCC2)N(C)C(=O)[C@H](C2CCCC2)N(C)C(=O)C2(CCCCC2)NC(=O)[C@@H]2CCCN2C(=O)[C@H](CCc2cc(F)c(C(F)(F)F)c(F)c2)NC(=O)CN(C)C(=O)[C@H](Cc2ccc(C(F)(F)F)cc2)N2CCCC[C@@H](C2=O)N(C)C(=O)CN(C)C1=O [PP0561]
NRAS /KRAS [1, 4]: B (a compound having 3 or more and less than 10 is denoted as B)
IC50 [2]: 20.9 nM
HRAS /KRAS [3, 5]: B (a compound having 3 or more and less than 10 is denoted as B)

CCC[C@H]1C(=O)N[C@@H]([C@@H](C)CC)C(=O)N(C)CC(=O)N(C)[C@H]2C/C=C\CCN(C2=O)[C@@H](Cc2ccc(C(F)(F)F)cc2)C(=O)N(C)CC(=O)N[C@@H](CCc2cc(F)c(C(F)(F)F)c(F)c2)C(=O)N2C[C@H](OCC)C[C@H]2C(=O)NC2(CCC2)C(=O)N(C)[C@@H](C2CCCC2)C(=O)N(C)[C@H](C(=O)N(C)CCC)CC(=O)N1C [PP1389]
NRAS /KRAS [1, 8]: AA (a compound having 20 or more is denoted as AA)
IC50 [2]: 2.4 nM
HRAS /KRAS [3, 9]: A (a compound having 10 or more and less than 20 is denoted as A)

CCO[C@@H]1C[C@H]2C(=O)NC3(CCC3)C(=O)N(C)[C@@H](C3CCCC3)C(=O)N(C)[C@H](C(=O)N(C)C)CC(=O)N(C)[C@@H](CC3CCCC3)C(=O)N[C@@H]([C@@H](C)CC)C(=O)N(C)CC(=O)N(C)[C@H]3C/C=C\CCN(C3=O)[C@@H](Cc3ccc(C)cc3)C(=O)N(C)CC(=O)N[C@@H](CCc3cc(Cl)c(C(F)(F)F)c(Cl)c3)C(=O)N2C1 [PP2679]
NRAS /KRAS [1, 6]: A (a compound having 10 or more and less than 20 is denoted as A)
IC50 [2]: 17.7 nM
HRAS /KRAS [3, 7]: A (a compound having 10 or more and less than 20 is denoted as A)
